Data taken from patent US11845752B2, “Substituted imidazo[1,5-a]pyrazines for the treatment of hepatitis B” (ALIGOS THERAPEUTICS, INC., priority 2020, dated 2023).

System: HBV
Assay: HBV-DNA antiviral assay using HepG2.117 cells (intracellular HBV DNA by qPCR)
Assay type: cell-based, HBV genotype D
Settings: Hepatitis B virus, HepG2.117, 72 h, HBV DNA inhibition, 3 days incubation, read-out: EC50
Description: The following assay procedure describes the HBV antiviral assay, using HepG2.117 cells, which carry a stably integrated genotype D HBV genome under the control of a Tet-off promoter, and intracellular HBV DNA quantification as endpoint. Cell viability is assessed in parallel by measuring the intracellular ATP content using ATPlite (Perkin Elmer).
On day 0, HepG2.117 cells (which are maintained in routine cell culture with doxycycline present in the medium at a final concentration of 1 μg/mL) were seeded in 96-well plates (white with clear bottom) at a density of 2.0×10^4 cells/well (0.1 mL/well) in medium without doxycycline to induce pgRNA transcription and subsequent formation of HBV particles. The cells were incubated at 37° C. and 5% CO2.
On day 1, medium was removed from each well, the test articles were diluted in culture medium without doxcycyline and 100 μL was added to cell culture wells (9 concentrations, 4-fold dilution). For each plate, 6 untreated (merely DMSO) wells were included. The final concentration of DMSO in the culture medium was 2%. Each plate was prepared in duplicate (one for HBV DNA extraction, one for ATPlite measurement). The cells were incubated at 37° C. and 5% CO2 for 3 days.
On day 4, cell viability was assessed using ATPlite and cell lysates were prepared for HBV DNA extraction and subsequent quantification by qPCR.
Medium was removed from each well and 100 μL of 0.33% NP-40 in H2O was added to each well. Plates were sealed, incubated at 4° C. for 5 mins, vortexed extensively and centrifuged briefly. Next, 35 μL of lysate was added to 65 μL QuickExtract DNA Extraction Solution (Epicentre) in a PCR plate for each well. PCR plate was incubated at 65° C. for 6 mins, 98° C. for 2 mins and finally cooled to 4° C. HBV DNA was then quantified by qPCR with HBV-specific primers and probes as specified in Table 1 using the Bio-Rad SSOAdvanced Universal Probes Supermix on a CFX96 machine (Bio-Rad). The PCR cycle program consisted of 95° C. for 3 mins, followed by 40 cycles at 95° C. for 10 sec and 60° C. for 30 sec.
A DNA standard was prepared by dilution of an IDT gBlock corresponding to the amplicon with concentrations ranging from 10^2 to 10^8 copies/input (i.e. per 4 μL) and used to generate a standard curve by plotting Cq values vs. HBV DNA standard concentration. The quantity of HBV DNA in each sample was determined by interpolating from the standard curve.
Cell viability was calculated as follows: % Cell viability=(luminescence value of test sample)/(average luminescence value of 2% DMSO control)×100%. HBV DNA inhibition was calculated as follows: 100−(HBV DNA copy number of test sample)/(average HBV DNA copy number of 2% DMSO control)×100%. No normalization to entecavir was required due to the excellent dynamic window of this assay. The CC50, EC50 and EC90 values were determined by dose-response curves fitted using non-linear regression.

Compound | EC50 [nM]
C[C@@H]1Cn2c(c(C(=O)NCc3ccccc3-c3ncccn3)n(-c3ccc(OC[C@H](O)C(F)(F)F)cc3)c2=O)CN1C(=O)c1ccc(Br)c(C(F)(F)F)c1 (mixture of isomers) [Compound 75a, (6RS)-7-[4-bromo-3-(trifluoromethyl)benzoyl]-6-methyl-3-oxo-N-[(2-pyrimidin-2-ylphenyl)methyl]-2-[4-[(2S)-3,3,3-trifluoro-2-hydroxy-propoxy]phenyl]-6,8-dihydro-5H-imidazo[1,5-a]pyrazine-1-carboxamide] | < 50
C[C@H]1Cn2c(c(C(=O)NCc3ccccc3-c3ncccn3)n(-c3ccc(OC[C@H](O)C(F)(F)F)cc3)c2=O)CN1C(=O)c1ccc(Br)c(C(F)(F)F)c1 (mixture of isomers) [Compound 75b, (6SR)-7-[4-bromo-3-(trifluoromethyl)benzoyl]-6-methyl-3-oxo-N-[(2-pyrimidin-2-ylphenyl)methyl]-2-[4-[(2S)-3,3,3-trifluoro-2-hydroxy-propoxy]phenyl]-6,8-dihydro-5H-imidazo[1,5-a]pyrazine-1-carboxamide] | 50 to 500
C[C@@H]1Cn2c(c(C(=O)NCc3ccccc3-c3ccncn3)n(-c3ccc(N4CCN(C)[C@H](C(F)(F)F)C4)cc3)c2=O)CN1C(=O)c1ccc(Br)c(C(F)(F)F)c1 (mixture of isomers) [Compound 87a, (6RS)-7-[4-bromo-3-(trifluoromethyl)benzoyl]-6-methyl-2-[4-[(3S)-4-methyl-3-(trifluoromethyl)piperazin-1-yl]phenyl]-3-oxo-N-[(2-pyrimidin-4-ylphenyl)methyl]-6,8-dihydro-5H-imidazo[1,5-a]pyrazine-1-carboxamide] | 50 to 500
C[C@H]1Cn2c(c(C(=O)NCc3ccccc3-c3ccncn3)n(-c3ccc(N4CCN(C)[C@H](C(F)(F)F)C4)cc3)c2=O)CN1C(=O)c1ccc(Br)c(C(F)(F)F)c1 (mixture of isomers) [Compound 87b, (6SR)-7-[4-bromo-3-(trifluoromethyl)benzoyl]-6-methyl-2-[4-[(3S)-4-methyl-3-(trifluoromethyl)piperazin-1-yl]phenyl]-3-oxo-N-[(2-pyrimidin-4-ylphenyl)methyl]-6,8-dihydro-5H-imidazo[1,5-a]pyrazine-1-carboxamide] | < 50
C[C@H](O)Cn1ncc2cc(-n3c(C(=O)NCc4ccccc4-c4ncccn4)c4n(c3=O)C[C@@H](C)N(C(=O)c3ccc(Br)c(C(F)(F)F)c3)C4)ccc21 (mixture of isomers) [Compound 94a, (6RS)-7-[4-bromo-3-(trifluoromethyl)benzoyl]-2-[1-[(2S)-2-hydroxypropyl]indazol-5-yl]-6-methyl-3-oxo-N-[(2-pyrimidin-2-ylphenyl)methyl]-6,8-dihydro-5H-imidazo[1,5-a]pyrazine-1-carboxamide] | 50 to 500
C[C@H](O)Cn1ncc2cc(-n3c(C(=O)NCc4ccccc4-c4ncccn4)c4n(c3=O)C[C@H](C)N(C(=O)c3ccc(Br)c(C(F)(F)F)c3)C4)ccc21 (mixture of isomers) [Compound 94b, (6SR)-7-[4-bromo-3-(trifluoromethyl)benzoyl]-2-[1-[(2S)-2-hydroxypropyl]indazol-5-yl]-6-methyl-3-oxo-N-[(2-pyrimidin-2-ylphenyl)methyl]-6,8-dihydro-5H-imidazo[1,5-a]pyrazine-1-carboxamide] | 50 to 500
C[C@H]1Cn2c(c(C(=O)NCc3ccccc3-c3ncccn3)n(-c3ccc4c(cnn4C[C@@H](O)C(F)(F)F)c3)c2=O)CN1C(=O)c1ccc(Br)c(C(F)(F)F)c1 (mixture of isomers) [Compound 101b, (6SR)-7-[4-bromo-3-(trifluoromethyl)benzoyl]-6-methyl-3-oxo-N-[(2-pyrimidin-2-ylphenyl)methyl]-2-[1-[(2R)-3,3,3-trifluoro-2-hydroxy-propyl]indazol-5-yl]-6,8-dihydro-5H-imidazo[1,5-a]pyrazine-1-carboxamide] | < 50
C[C@@H]1Cn2c(c(C(=O)NCc3ccccc3-c3ncccn3)n(-c3ccc4c(cnn4C[C@H](O)C(F)(F)F)c3)c2=O)CN1C(=O)c1ccc(Br)c(C(F)(F)F)c1 (mixture of isomers) [Compound 102a, (6RS)-7-[4-bromo-3-(trifluoromethyl)benzoyl]-6-methyl-3-oxo-N-[(2-pyrimidin-2-ylphenyl)methyl]-2-[1-[(2S)-3,3,3-trifluoro-2-hydroxy-propyl]indazol-5-yl]-6,8-dihydro-5H-imidazo[1,5-a]pyrazine-1-carboxamide] | 50 to 500
C[C@H]1Cn2c(c(C(=O)NCc3ccccc3-c3ncccn3)n(-c3ccc4c(cnn4C[C@H](O)C(F)(F)F)c3)c2=O)CN1C(=O)c1ccc(Br)c(C(F)(F)F)c1 (mixture of isomers) [Compound 102b, (6SR)-7-[4-bromo-3-(trifluoromethyl)benzoyl]-6-methyl-3-oxo-N-[(2-pyrimidin-2-ylphenyl)methyl]-2-[1-[(2S)-3,3,3-trifluoro-2-hydroxy-propyl]indazol-5-yl]-6,8-dihydro-5H-imidazo[1,5-a]pyrazine-1-carboxamide] | < 50
C[C@H]1Cn2c(c(C(=O)NCc3ccccc3-c3ncccn3)n(-c3ccc4nn(C[C@@H](O)C(F)(F)F)cc4c3)c2=O)CN1C(=O)c1ccc(Br)c(C(F)(F)F)c1 (mixture of isomers) [Compound 105b, (6SR)-7-[4-bromo-3-(trifluoromethyl)benzoyl]-6-methyl-3-oxo-N-[(2-pyrimidin-2-ylphenyl)methyl]-2-[2-[(2R)-3,3,3-trifluoro-2-hydroxy-propyl]indazol-5-yl]-6,8-dihydro-5H-imidazo[1,5-a]pyrazine-1-carboxamide] | 50 to 500
C[C@@H]1Cn2c(c(C(=O)NCc3ccccc3-c3ncccn3)n(-c3ccc4nn(C[C@H](O)C(F)(F)F)cc4c3)c2=O)CN1C(=O)c1ccc(Br)c(C(F)(F)F)c1 (mixture of isomers) [Compound 107a, (6RS)-7-[4-bromo-3-(trifluoromethyl)benzoyl]-6-methyl-3-oxo-N-[(2-pyrimidin-2-ylphenyl)methyl]-2-[2-[(2S)-3,3,3-trifluoro-2-hydroxy-propyl]indazol-5-yl]-6,8-dihydro-5H-imidazo[1,5-a]pyrazine-1-carboxamide] | 50 to 500
C[C@H]1Cn2c(c(C(=O)NCc3ccccc3-c3ncccn3)n(-c3ccc4nn(C[C@H](O)C(F)(F)F)cc4c3)c2=O)CN1C(=O)c1ccc(Br)c(C(F)(F)F)c1 (mixture of isomers) [Compound 107b, (6SR)-7-[4-bromo-3-(trifluoromethyl)benzoyl]-6-methyl-3-oxo-N-[(2-pyrimidin-2-ylphenyl)methyl]-2-[2-[(2S)-3,3,3-trifluoro-2-hydroxy-propyl]indazol-5-yl]-6,8-dihydro-5H-imidazo[1,5-a]pyrazine-1-carboxamide] | 50 to 500
C[C@@H]1Cn2c(c(C(=O)NCc3ccccc3-c3ccn(CC(F)(F)F)n3)n(-c3ccc4c(cnn4C[C@@H](C)O)c3)c2=O)CN1C(=O)c1ccc(Br)c(C(F)(F)F)c1 (mixture of isomers) [Compound 111a, (6RS)-7-[4-bromo-3-(trifluoromethyl)benzoyl]-2-[1-[(2R)-2-hydroxypropyl]indazol-5-yl]-6-methyl-3-oxo-N-[[2-[1-(2,2,2-trifluoroethyl)pyrazol-3-yl]phenyl]methyl]-6,8-dihydro-5H-imidazo[1,5-a]pyrazine-1-carboxamide] | 50 to 500
C[C@@H](O)Cn1ncc2cc(-n3c(C(=O)NCc4ccccc4-c4ccn(CC(F)(F)F)n4)c4n(c3=O)C[C@H](C)N(C(=O)c3ccc(Br)c(C(F)(F)F)c3)C4)ccc21 (mixture of isomers) [Compound 111b, (6SR)-7-[4-bromo-3-(trifluoromethyl)benzoyl]-2-[1-[(2R)-2-hydroxypropyl]indazol-5-yl]-6-methyl-3-oxo-N-[[2-[1-(2,2,2-trifluoroethyl)pyrazol-3-yl]phenyl]methyl]-6,8-dihydro-5H-imidazo[1,5-a]pyrazine-1-carboxamide] | 50 to 500
CNc1ccnc(-c2ccccc2CNC(=O)c2c3n(c(=O)n2-c2ccc(OC4CC4)cc2)C[C@H](C)N(C(=O)c2ccc(Br)c(Cl)c2)C3)n1 (racemic) [Compound 26b] | < 50
